Laboratory results as given in PubChem BioAssay AID192 (DTP/NCI, 2004).
Several values for one entry are separate records, joined by “and”; a condition that tells them apart may be missing. Identical values can stand only once. Inconclusive results and toxic doses are left out. The calls were made as follows: active = survival T/C of 150% or more; inactive = T/C below 125% in these data.

Tested on: BDF1 mice, B16 melanoma ip, median survival T/C
Assay: NCI In Vivo Anticancer Drug Screen. Data for tumor model B16 Melanoma (intraperitoneal) in B6D2F1 (BDF1) mice
Details: endpoint: median survival time, higher = longer survival
Summary of the method: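 Survival or tumor size is measured after treatment of tumor-bearing mice and normalised to the vehicle-treated control group.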

[1] = dose: 400.0 mg/kg/injection, schedule: Q01DX009 (ip), vehicle: Klucel (hydroxypropylcellulose) (HPC)
[2] = dose: 50.0 mg/kg/injection, schedule: Q01DX009 (ip), vehicle: saline with Tween-80
[3] = dose: 100.0 mg/kg/injection, schedule: Q01DX009 (ip), vehicle: saline with Tween-80
[4] = dose: 50.0 mg/kg/injection, schedule: Q01DX009 (ip), vehicle: saline
[5] = dose: 100.0 mg/kg/injection, schedule: Q01DX009 (ip), vehicle: saline
[6] = dose: 25.0 mg/kg/injection, schedule: Q01DX009 (ip), vehicle: Klucel (hydroxypropylcellulose) (HPC)
[7] = dose: 50.0 mg/kg/injection, schedule: Q01DX009 (ip), vehicle: Klucel (hydroxypropylcellulose) (HPC)
[8] = dose: 100.0 mg/kg/injection, schedule: Q01DX009 (ip), vehicle: Klucel (hydroxypropylcellulose) (HPC)

Measured: T/C

CC(Cc1ccc2c(c1)OCO2)C(C)Cc1ccc2c(c1)OCO2 (stereo not drawn)
inactive: dose: 100.0 mg/kg/injection, schedule: Q01DX009 (ip), vehicle: other 94 % of control | dose: 200.0 mg/kg/injection, schedule: Q01DX009 (ip), vehicle: other 89 % of control | dose: 400.0 mg/kg/injection, schedule: Q01DX009 (ip), vehicle: other 89 % of control

O=C=Nc1ccc(Cc2ccc(N=C=O)cc2)cc1
inactive: [1] 123 % of control

C1CC2(CCN1)SSC1(CCNCC1)S2
inactive: dose: 100.0 mg/kg/injection, schedule: Q04DX003 (ip), vehicle: saline 100 % of control | dose: 200.0 mg/kg/injection, schedule: Q04DX003 (ip), vehicle: saline 100 % of control

CC(NC(=O)CN(C)C(=O)OCc1ccccc1)C(=O)O (stereo not drawn)
inactive: [2] 99 % of control | [3] 98 % of control | dose: 200.0 mg/kg/injection, schedule: Q01DX009 (ip), vehicle: saline with Tween-80 97 % of control

Cc1cc(NCCCCCCNc2cc(C)nc3ccc(N)cc23)c2cc(N)ccc2n1
inactive: dose: 2.25 mg/kg/injection, schedule: Q01DX009 (ip), vehicle: saline with Tween-80 104 % of control | dose: 4.5 mg/kg/injection, schedule: Q01DX009 (ip), vehicle: saline with Tween-80 102 % of control | dose: 9.0 mg/kg/injection, schedule: Q01DX009 (ip), vehicle: saline with Tween-80 104 % of control | dose: 18.0 mg/kg/injection, schedule: Q01DX009 (ip), vehicle: saline with Tween-80 122 % of control

O=C(O)c1cc2ccccc2cn1
inactive: [4] 102 % of control | [5] 100 % of control

ClCc1ccc(Oc2ccc(CCl)cc2)cc1
inactive: dose: 6.25 mg/kg/injection, schedule: Q01DX009 (ip), vehicle: Klucel (hydroxypropylcellulose) (HPC) 101 % of control | dose: 12.5 mg/kg/injection, schedule: Q01DX009 (ip), vehicle: Klucel (hydroxypropylcellulose) (HPC) 101 % of control and 115 % of control | [6] 105 % of control | [7] 115 % of control and 124 % of control

Nc1nc(N)c2nc(CNc3ccc(C(=O)NC(CCC(=O)O)C(=O)O)cc3)cnc2n1 (stereo not drawn)
inactive: dose: 0.03 mg/kg/injection, schedule: Q01DX009 (ip), vehicle: saline with Tween-80 91 % of control | dose: 0.13 mg/kg/injection, schedule: Q01DX009 (ip), vehicle: saline with Tween-80 102 % of control | dose: 0.25 mg/kg/injection, schedule: Q01DX009 (ip), vehicle: saline with Tween-80 91 % of control and 95 % of control

CSCCC(NC(=O)CN(C)C(=O)OCc1ccccc1)C(=O)O (stereo not drawn)
inactive: [2] 100 % of control | [3] 100 % of control

CCCCCCCCC(=O)CCCCC
inactive: dose: 75.0 mg/kg/injection, schedule: Q01DX009 (ip), vehicle: Klucel (hydroxypropylcellulose) (HPC) 104 % of control | dose: 150.0 mg/kg/injection, schedule: Q01DX009 (ip), vehicle: Klucel (hydroxypropylcellulose) (HPC) 103 % of control | dose: 300.0 mg/kg/injection, schedule: Q01DX009 (ip), vehicle: Klucel (hydroxypropylcellulose) (HPC) 103 % of control

C=CCOCC(O)CN(CCC)CCC (stereo not drawn)
inactive: dose: 12.5 mg/kg/injection, schedule: Q01DX009 (ip), vehicle: saline with Tween-80 114 % of control | dose: 25.0 mg/kg/injection, schedule: Q01DX009 (ip), vehicle: saline with Tween-80 112 % of control | [2] 114 % of control

CCCC1(C)COB(c2ccc(C)cc2)OC1
inactive: [6] 93 % of control | [7] 90 % of control | [8] 97 % of control | dose: 200.0 mg/kg/injection, schedule: Q01DX009 (ip), vehicle: Klucel (hydroxypropylcellulose) (HPC) 86 % of control | [1] 90 % of control

CC(=O)Nc1cccc(OCCCOc2cccc(C(=N)N)c2)c1
inactive: dose: 9.37 mg/kg/injection, schedule: Q04DX003 (ip), vehicle: Klucel (hydroxypropylcellulose) (HPC) 102 % of control | dose: 18.75 mg/kg/injection, schedule: Q04DX003 (ip), vehicle: Klucel (hydroxypropylcellulose) (HPC) 100 % of control | dose: 37.5 mg/kg/injection, schedule: Q04DX003 (ip), vehicle: Klucel (hydroxypropylcellulose) (HPC) 97 % of control | [7] 102 % of control | [8] 86 % of control

ClCC[N+]12CC[N+](CCCl)(CC1)C2 (tested in a mixture with another compound)
inactive: [4] 120 % of control | [5] 115 % of control | dose: 200.0 mg/kg/injection, schedule: Q01DX009 (ip), vehicle: saline 121 % of control
